Results reported in patent US10329304B2, “Compounds and methods for inhibition of hedgehog signaling and phosphodiesterase” (Vanderbilt University, priority 2014, dated 2019).
pEC50: −log10 of the molar value.

Key:
Format in all cases: cell-based
Ptch1 transcription = assay: Sufu−/− mouse embryonic fibroblasts qRT-PCR; details: Mus musculus, Fibroblast; read-out: Sufu Null (Ptc) % Inh., 10 μM
Gli1 mRNA = assay: Hh % Inh.: SAG-induced Gli1 expression in C3H10T½ cells (qPCR); details: Mus musculus, C3H 10T1/2, SAG-induced (100 nM), 24 hours; for inhibition at 1 µM: 1 pM [sic], read-out: C3H10T1/2 qPCR, Gh1 mRNA % Inh., 1 pM; for inhibition at 10 µM: 10 pM [sic], read-out: C3H10T1/2 qPCR, Gh1 mRNA % Inh., 10 pM; for pEC50: read-out: C3H10T1/2 qPCR, Gh1 mRNA EC50
Description: Compounds are dosed from 10 mM DMSO stock solutions, and mRNA is isolated after 24 hours of compound treatment. mRNA is reverse transcribed to produce cDNA which is quantified by quantitative polymerase chain reaction (qPCR) in triplicate and levels are normalized to GAPDH levels. Data is presented as percent inhibition compared to positive control (SAG).

H82 = assay: Cell killing EC50 in H82 lung cancer cells (Table 10); details: human cancer cells
Description: It is anticipated that compounds disclosed herein could serve as an anti-tumor, anti-angiogenic, anti-metastatic, agent in the treatment of cancer. To this end, a series of clinically relevant cancer lines were assayed and the cell-killing EC50s for compounds according to the subject matter disclosed herein are provided in Table 10.

MCF7 = assay: Cell viability assay (CellTiter-Blue, 72 hr); details: human cancer cells
Description: (§1) Cancer cell lines were seeded in 96 well tissue culture plate at a low density (10,000 cells per well) and treated with varying concentrations of Eggmanone. After 72 hr incubation, CellTiter-Blue Cell Viability Assay (Promega, Madison, Wis.) was then performed according to manufacturer's protocol. Absorbance was then measured in a Modulus Microplate reader (Promega, Madison, Wis.) at 590 nm and compared to cells treated with DMSO.
as §1, with “density” for “density (10,000 cells per well)”, “compounds identified in Table 7.” for “Eggmanone.”

| SMILES | inhibition at 10 µM (Ptch1 transcription) [%] | inhibition at 1 µM (Gli1 mRNA) [%] | inhibition at 10 µM (Gli1 mRNA) [%] | pEC50 (Gli1 mRNA) | CELL KILLING EC50 (μM) Lung H82 (H82) | CELL KILLING EC50 (μM) Breast MCF7 (MCF7) |
| --- | --- | --- | --- | --- | --- | --- |
| O=C(CSc1nc2sc3c(c2c(=O)n1C1CC1)CCCC3)c1cccs1 [JEH-3-039-2] | 80.4 | 49.3 | 89.1 | 6.23 |  |  |
| C=C(C)Cn1c(SCC(=O)c2ccccc2)nc2sc3c(c2c1=O)CCCC3 [JEH-3-045-1] | 47.6 | 58.1 | 95.4 | 6.09 |  |  |
| C=C(C)Cn1c(SCC(=O)c2nccs2)nc2sc3c(c2c1=O)CCCC3 [JEH-3-069-1] |  |  | 42.8 |  | UnCh | UnCh |
| C=C(C)Cn1c(SCC(=O)c2ccccn2)nc2sc3c(c2c1=O)CCCC3 [JEH-3-063] |  |  | 35.4 |  | UnCh | UnCh |
| C=C(C)Cn1c(SCC(=O)c2cccs2)nc2sc3c(c2c1=O)CCCC3 [EGM, Eggmanone] | 65.6 | 53.3 | 92.7 | 5.85 | UnCh | UnCh |
| C=C(C)Cn1c(SCC(=O)c2ccncc2)nc2sc3c(c2c1=O)CCCC3 [JEH-3-048-1] |  |  | 28.7 |  | UnCh | UnCh |
| C=CCn1c(SCC(=O)c2cccs2)nc2sc3c(c2c1=O)CCCC3 [JEH-3-039-3] | 38.1 | 64.9 | 66.5 |  | UnCh | UnCh |
